Entries after “also recorded” stand apart in the source; their conditions may differ.
What was measured:
[1] = tested on: HepG2 cells; experiment: Uptake of IgG2a antibody conjugates into HepG2 cells; assay type: cell-based, human; conditions: one hour incubation
Method: The uptake of antibody conjugates of exemplary M6PR or ASGPR binding compounds was assessed in Hep G2 cells, using a method similar to that described in Example above.

[2] = tested on: HepG2 cells; experiment: Uptake of Alexa488-labelled target IgE bound to omalizumab (OMA) conjugates in HepG2 cells, flow cytometry; assay type: cell-based, human; conditions: omalizumab (anti-IgE) conjugate bound to IgE-Alexa488, equal molar ratios; 1 hour
Method: (§1) The omalizumab conjugates of Example 60 were bound to IgE-Alexa488 (prepared according to Example 62), as follows: equal molar ratios of omalizumab (anti-IgE) conjugate and IgE-Alexa488 were added in tissue culture media for 30 minutes at room temperature. The resulting anti-IgE conjugate:IgE antibody-Alexa488 compositions were added to HepG2 cells (100 k cells/50 ul per well, n=2), and Alexa488 fluorescence levels in the cells were measured at 1 hour by flow cytometry. As the fluorescently labelled target (IgE antibody) accumulates in cells, the fluorescence presents a way to measure total intracellular uptake by cells over time.
as §1, with “OMA Ab” for “The omalizumab”, “example compounds I-160-I-163 and I-141” for “Example 60”, “by adapting procedure in” for “according to”, “61),” for “62),”, “OMA(anti-IgE)” for “omalizumab (anti-IgE)”

[3] = Pharmacokinetic study of OMA-linked compounds in mice, serum hIgG by ELISA; assay type: in vivo; conditions: IV 5 mg/kg, female C57BL/6 mice, up to 168 hours
Method: Pharmacokinetic (PK) studies were undertaken to determine the pharmacokinetic profile of various OMA linked example compounds (I-161-I-163).
Protocol: Female C57BL/6 mice are dosed via IV with 5 mg/kg of OMA-example compounds, and OMA-reference. Serum samples are collected at 0.083, 0.25, 0.5, 1, 2, 4, 8, 24, 48, 72, and 168 hours after dosing with 3 animals per timepoint.
Serum hIgG concentrations were measured by ELISA.

[4] = tested on: IgE; experiment: Pharmacodynamic study: clearance of target IgE by OMA conjugates in mice, serum hIgE by ELISA; assay type: in vivo, C57BL/6 mice; conditions: 0.1 mg/kg of OMA conjugate, IgE 1 mg/kg
Method: Protocol: Female C57BL/6 mice were IV dosed 1 mg/kg of IgE followed by 0.1, 0.3, 1, or 3 mg/kg of OMA-I-163 16 hours later. Serum samples were collected at 0 (pre-bleed), 1, 4, and 24 hours after OMA-I-163 dose with 3 animals per timepoint.
Serum hIgE and hIgG concentrations were measured by ELISA.
Protocol: Female C57BL/6 mice were IV dosed 1 mg/kg of IgE followed by 0.1 mg/kg of OMA-I-163, OMA-I-162, OMA-I-161, and OMA-I-160 16 hours later. Serum samples were collected at 0 (pre-bleed), 1, 4, and 24 hours after LYTAC dose with 3 animals per timepoint.
Serum concentrations were measured by Elisa.

SMILES	HepG2 cellular uptake of antibody conjugate (cell fluorescence, MFI) [1]	relative uptake activity of Alexa488 labeled-target IgE in HepG2 cells [2]	PK profile / clearance of OMA-linked compound (serum hIgG) [3]	IgE clearance efficiency compared to reference OMA-I-163 [4]
O=C(CCOCCOCCOCCOCCn1cc(CCCCNC(=S)Nc2ccc(O[C@H]3O[C@H](CCP(=O)(O)O)[C@@H](O)[C@H](O)[C@@H]3O)cc2)nn1)Oc1c(F)c(F)c(F)c(F)c1F [Compound 520, reference compound]	comparable HepG2 cellular uptake; also recorded: comparable robust uptake into HepG2 cells			
CC(=O)N[C@H]1[C@H](OCCCCC(=O)NCCCNC(=O)CCOCC(COCCC(=O)NCCCNC(=O)CCCCO[C@@H]2O[C@H](CO)[C@H](O)[C@H](O)[C@H]2NC(C)=O)(COCCC(=O)NCCCNC(=O)CCCCO[C@@H]2O[C@H](CO)[C@H](O)[C@H](O)[C@H]2NC(C)=O)NC(=O)CCCCCCCCCCC(=O)Oc2c(F)c(F)c(F)c(F)c2F)O[C@H](CO)[C@H](O)[C@@H]1O [Compound 1209]	comparable HepG2 cellular uptake			
CC(=O)N[C@H]1[C@H](OCCCCC(=O)NCCCNC(=O)CCOCC(COCCC(=O)NCCCNC(=O)CCCCO[C@@H]2O[C@H](CO)[C@H](O)[C@H](O)[C@H]2NC(C)=O)(COCCC(=O)NCCCNC(=O)CCCCO[C@@H]2O[C@H](CO)[C@H](O)[C@H](O)[C@H]2NC(C)=O)NC(=O)CCCCCCCCCCCN2C(=O)C=CC2=O)O[C@H](CO)[C@H](O)[C@@H]1O [Compound 1210]	comparable HepG2 cellular uptake			
CC(=O)N[C@@H]1[C@@H](O)[C@@H](O)[C@@H](CO)O[C@H]1SCCC(=O)NCCCCCNC(=O)CCOCC(COCCC(=O)NCCCCCNC(=O)CCS[C@@H]1O[C@H](CO)[C@H](O)[C@H](O)[C@H]1NC(C)=O)(COCCC(=O)NCCCCCNC(=O)CCS[C@@H]1O[C@H](CO)[C@H](O)[C@H](O)[C@H]1NC(C)=O)NC(=O)CCCCCCCCCCC(=O)Oc1c(F)c(F)c(F)c(F)c1F [Compound I-141, perfluorophenyl 1-(((2S,3R,4R,5R,6R)-3-acetamido-4,5-dihydroxy-6-(hydroxymethyl)tetrahydro-2H-pyran-2-yl)thio)-16,16-bis((3-((5-(3-(((2S,3R,4R,5R,6R)-3-acetamido-4,5-dihydroxy-6-(hydroxymethyl)tetrahydro-2H-pyran-2-yl)thio)propanamido)pentyl)amino)-3-oxopropoxy)methyl)-3,11,18-trioxo-14-oxa-4,10,17-triazanonacosan-29-oate]		superior uptake to that of the 0-glycoside		
CC(=O)N[C@@H]1[C@@H](O)[C@@H](O)[C@@H](CO)O[C@H]1n1cc(COCCOCCOCCNC(=O)CCC(CCC(=O)NCCOCCOCCOCc2cn([C@@H]3O[C@H](CO)[C@H](O)[C@H](O)[C@H]3NC(C)=O)nn2)(CCC(=O)NCCOCCOCCOCc2cn([C@@H]3O[C@H](CO)[C@H](O)[C@H](O)[C@H]3NC(C)=O)nn2)NC(=O)CCCCCCCCCCC(=O)Oc2c(F)c(F)c(F)c(F)c2F)nn1 [Compound I-143, perfluorophenyl 1-(1-((2R,3R,4R,5R,6R)-3-acetamido-4,5-dihydroxy-6-(hydroxymethyl)tetrahydro-2H-pyran-2-yl)-1H-1,2,3-triazol-4-yl)-15,15-bis(1-(1-((2R,3R,4R,5R,6R)-3-acetamido-4,5-dihydroxy-6-(hydroxymethyl)tetrahydro-2H-pyran-2-yl)-1H-1,2,3-triazol-4-yl)-12-oxo-2,5,8-trioxa-11-azatetradecan-14-yl)-12,17-dioxo-2,5,8-trioxa-11,16-diazaoctacosan-28-oate]		superior activity to the reference conjugate		
CC(=O)N[C@H]1[C@H](OCCCCC(=O)NCCCNC(=O)CCOCC(COCCC(=O)NCCCNC(=O)CCCCO[C@@H]2O[C@H](CO)[C@H](O)[C@H](O)[C@H]2NC(C)=O)(COCCC(=O)NCCCNC(=O)CCCCO[C@@H]2O[C@H](CO)[C@H](O)[C@H](O)[C@H]2NC(C)=O)NC(=O)CCOCCOCCOCCOCCC(=O)Oc2c(F)c(F)c(F)c(F)c2F)O[C@H](CO)[C@H](O)[C@@H]1O [Compound I-145]		superior uptake to conjugates having a valency of 2 or 1		
CO[C@@H]1O[C@H](CO)[C@H](O)[C@H](O)[C@H]1NC(=O)COCCc1cn(CCOCCOCCNC(=O)CCC(CCC(=O)NCCOCCOCCn2cc(CCOCC(=O)N[C@H]3[C@H](OC)O[C@H](CO)[C@H](O)[C@@H]3O)nn2)(CCC(=O)NCCOCCOCCn2cc(CCOCC(=O)N[C@H]3[C@H](OC)O[C@H](CO)[C@H](O)[C@@H]3O)nn2)NC(=O)CCCCCCCCCCC(=O)Oc2c(F)c(F)c(F)c(F)c2F)nn1 [Compound I-155]		less active than the 1-position linked conjugate		
CC(=O)N[C@@H]1[C@@H](O)[C@@H](O)[C@@H](CO)O[C@H]1Cc1cn(CCOCCOCCOCCNC(=O)CCC(CCC(=O)NCCOCCOCCOCCn2cc(C[C@@H]3O[C@H](CO)[C@H](O)[C@H](O)[C@H]3NC(C)=O)nn2)(CCC(=O)NCCOCCOCCOCCn2cc(C[C@@H]3O[C@H](CO)[C@H](O)[C@H](O)[C@H]3NC(C)=O)nn2)NC(=O)CCCCCCCCCCC(=O)NCCN2C(=O)C=CC2=O)nn1 [Compound I-160]		most active anomeric position variants	distinct PK profiles from reference compound I-163	clear IgE more efficiently than the reference compound
CC(=O)N[C@@H]1[C@@H](O)[C@@H](O)[C@@H](CO)C[C@H]1n1cc(COCCOCCOCCNC(=O)CCC(CCC(=O)NCCOCCOCCOCc2cn([C@@H]3O[C@H](CO)[C@H](O)[C@H](O)[C@H]3NC(C)=O)nn2)(CCC(=O)NCCOCCOCCOCc2cn([C@@H]3O[C@H](CO)[C@H](O)[C@H](O)[C@H]3NC(C)=O)nn2)NC(=O)CCCCCCCCCCC(=O)NCCN2C(=O)C=CC2=O)nn1 [Compound I-161]		essentially identical activity to the reference conjugate; also recorded: most active anomeric position variants	distinct PK profiles from reference compound I-163	clear IgE more efficiently than the reference compound
CC(=O)N[C@@H]1[C@@H](O)[C@@H](O)[C@@H](CO)O[C@H]1SCCC(=O)NCCCCCNC(=O)CCOCC(COCCC(=O)NCCCCCNC(=O)CCS[C@@H]1O[C@H](CO)[C@H](O)[C@H](O)[C@H]1NC(C)=O)(COCCC(=O)NCCCCCNC(=O)CCS[C@@H]1O[C@H](CO)[C@H](O)[C@H](O)[C@H]1NC(C)=O)NC(=O)CCCCCCCCCCC(=O)NCCN1C(=O)C=CC1=O [Compound I-162]		most active anomeric position variants	distinct PK profiles from reference compound I-163	clear IgE more efficiently than the reference compound
